From the SangsterLogP compilation

Assay: method code SF-AS, from DOI: 10.1080/09553007914550151, PMID: 312783
Conditions: pH 7.4
In the case of O=[N+]([O-])c1nccn1CCS(=O)(=O)c1ccccc1, the logD is reported as 0.52. CC(C)OCC(O)Cn1ccnc1[N+](=O)[O-] (configuration not stated) showed a logD of 0.51. Compound CC(=O)Cn1ccnc1[N+](=O)[O-] has a logD of -0.34. With CCOCCn1ccnc1[N+](=O)[O-] the logD was 0.53. Cn1c(CO)cnc1[N+](=O)[O-] gave a logD of -0.35. Compound O=[N+]([O-])c1cn(CCN2CCOCC2)cn1 has a logD of -0.38. Work on O=[N+]([O-])c1nccn1CCOc1ccccc1 yielded a logD of 1.89. In the case of COC(=O)Cn1ccnc1[N+](=O)[O-], the logD is reported as -0.09. Work on CS(=O)(=O)CCn1ccnc1[N+](=O)[O-] yielded a logD of -1.3. Work on O=[N+]([O-])c1nccn1CCCOc1ccccc1 yielded a logD of 2.38. Compound O=[N+]([O-])c1nccn1CCN1CCOCC1 has a logD of -0.1. In the case of C=Cc1cnc([N+](=O)[O-])n1C, the logD is reported as 0.64. Work on COC(=O)c1cnc([N+](=O)[O-])n1C yielded a logD of 0.51. In the case of COCCn1ccnc1[N+](=O)[O-], the logD is reported as 0.12. COCC(O)Cn1cc([N+](=O)[O-])nc1C (configuration not stated) showed a logD of -0.36. Compound COCc1ccc([N+](=O)[O-])o1 has a logD of 0.89. Cn1c(C(C)(C)O)cnc1[N+](=O)[O-] showed a logD of 0.43.
